Experimental findings from patent publication US20230067159A1, “ROR-GAMMA-T INHIBITOR, PREPARATION METHOD THEREOF AND USE THEREOF” (priority 2020, published 2023) are described below.

One series deals with T1, RORγ (Homo sapiens, UniProt P51449).
T1 construct: The concentration of B-RORγ LBD was 40 nM
T1 sequence (P51449 269-508 limits assumed): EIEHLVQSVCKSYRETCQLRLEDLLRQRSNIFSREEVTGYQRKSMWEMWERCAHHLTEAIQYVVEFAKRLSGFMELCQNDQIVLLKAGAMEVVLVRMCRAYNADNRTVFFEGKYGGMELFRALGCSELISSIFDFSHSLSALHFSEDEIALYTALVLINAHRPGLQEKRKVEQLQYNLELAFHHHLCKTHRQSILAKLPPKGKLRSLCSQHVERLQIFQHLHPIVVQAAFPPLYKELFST
Briefly: Fluorescence resonance energy transfer (FRET) test, B-RORγ LBD / Biotin-SRC1. Format: biochemical. In a few lines:
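TR-FRET coactivator recruitment: biotinylated RORγ LBD (40 nM, 2× stock) on SA-APC with biotinylated SRC1 peptide (40 nM, 2× stock) on SA-Eu, in HEPES pH 7.4, 100 mM NaCl, 0.01% BSA, 10 mM DTT. Compounds in 11-point 3-fold DMSO series; 1 h room temperature. 665/615 ratio normalised to DMSO (Min) and 10 μM SRC (Max).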

Series [1] is described as follows: Pharmacokinetic evaluation I in ICR mice. The format is in vivo. The conditions noted are these: mouse, plasma, po; for bioavailability: p.o. 5 mg/kg, i.v. 1 mg/kg, read-out: Oral bioavailability (F); for AUC(0-t) / Cmax / half-life: 5 mg/kg. As for the experimental part:
Biological Example 2 Pharmacokinetic Evaluation I
ICR mice were weighed after an overnight fast for 15 h, and then randomly divided into groups according to body weight. The test compounds were formulated in a vehicle of 10% DMSO 10% kolliphor HS15^+ 80% Saline. For the test group administered intravenously (indicated by i.v.), the test animals were administered a dose of 1 mg/kg; for the test group administered by oral administration (indicated by p.o.), the test animals were administered a dose of 5 mg/kg. Then, at time points 0, 0.083 (intravenous injection group only), 0.25, 0.5, 1.0, 2.0, 5.0, 7.0 and 24 h, venous blood (approximately 0.2 mL) was collected and placed in an EDTAK2 anticoagulation tube, then centrifuged at 11,000 rpm for 2 min. Plasma was collected and stored at −20° C. or −70° C. until LC/MS/MS analysis. The drug concentration in plasma was measured at each time point, and the pharmacokinetic parameters were calculated according to the drug concentration-time curve.

Series [2] in a line: Stability in human liver microsomes. The format is in vitro ADME. The following applies: pH 7.4; for half-life at 1.5 μM: human liver microsomes 0.5 mg protein/mL, compound 1.5 μM, NADPH, 37° C., read-out: Half-life t1/2; for CLint scaled at 1.5 μM: human liver microsomes, inferred in vivo intrinsic hepatic clearance rate. As for the experimental part:
(§1) Biological Example 4 Stability of the Compounds of the Present Invention in Human and Rat Liver Microsomes
(§2) Human or rat liver microsomes were incubated in double wells in polypropylene tubes. A typical incubation mixture included human or rat liver microsomes (final concentration: 0.5 mg protein/mL), target compound (final concentration: 1.5 μM), and K-phosphate buffered solution (containing […] EDTA, 100 mM, pH=7.4) in a total volume of 30 μL. Compounds were dissolved in DMSO and diluted with K-phosphate buffered solution to give a final working solution concentration of 30 μM. After 10 min of pre-incubation, 25 μL of test compound or positive control solution was transferred to the microsomal solution. The mixture was mixed well and 30 μL of the mixture was immediately pipetted, ice-cold acetonitrile was added, then 15 μL of NADPH was added as T0. 15 μL of NADPH (final concentration: 2 mM) was added to 30 μL of the mixture for the enzymatic reaction, and the entire experiment was carried out in an incubation tube at 37° C. At various time points (0, 20 and 60 min), the reaction was stopped by adding 150 μL of acetonitrile (with internal standard). The protein was removed by centrifugation at 4000 rpm for 10 min, and the supernatant was collected and analyzed by LC-MS/MS.
(§3) For each reaction, the concentration of compound in the incubation of human or rat liver microsomes was plotted (expressed as a percentage) as a percentage relative to the zero time point to infer in vitro metabolic half-life and in vivo intrinsic hepatic clearance rate.
(Liver microsomes are a subcellular fraction often used to study metabolism.)

The nature of series [3]: Stability in rat liver microsomes. The following applies: pH 7.4; for half-life at 1.5 μM: rat liver microsomes 0.5 mg protein/mL, compound 1.5 μM, NADPH, 37° C., read-out: Half-life t1/2; for CLint scaled at 1.5 μM: rat liver microsomes, inferred in vivo intrinsic hepatic clearance rate. Format: in vitro ADME. As to the method: as §1, §2, §3

The molecule `CCS(=O)(=O)c1ccc([C@H](CCO)NC(=O)c2ccc(N3C[C@@H](Oc4ccc(OC(F)(F)F)cc4)C[C@H]3COC(F)F)cc2)cc1` [Example 119, 4-((2S,4S)-2-((difluoromethoxy)methyl)-4-(4-(trifluoromethoxy)phenoxy)pyrrolidin-1-yl)-N—((S)-1-(4-(ethylsulfonyl)phenyl)-3-hydroxypropyl)benzamide] displayed an IC50 against RORγ of 9.2 nM. In series [1], the bioavailability was 71%, the AUC(0-t) turned out to be 28.5 µM·h, the Cmax stood at 2380 nM and the half-life is 6.5 h. In series [2], the half-life at 1.5 μM came to 5.25 h and the CLint scaled at 1.5 μM was 4.4 mL/min/kg. Further, in series [3], the half-life at 1.5 μM turned out to be 7.17 h and the CLint scaled at 1.5 μM came out at 3.2 mL/min/kg.
Take `CCS(=O)(=O)c1ccc([C@H](CCO)NC(=O)c2ccc(N3C[C@@H](Oc4ccc(OC(F)(F)F)cc4)C[C@H]3CF)cc2)cc1` [Example 117, N—((S)-1-(4-(ethylsulfonyl)phenyl)-3-hydroxypropyl)-4-((2S,4S)-2-(fluoromethyl)-4-(4-(trifluoromethoxy)phenoxy)pyrrolidin-1-yl)benzamide]: on RORγ, the IC50 turned out to be 14 nM. Also, in series [3], the half-life at 1.5 μM turned out to be 6.12 h and the CLint scaled at 1.5 μM was determined as 3.8 mL/min/kg.
`CCS(=O)(=O)c1ccc([C@H](CO)NC(=O)c2ccc(N3C[C@@H](Oc4ccc(C(F)(F)F)cc4)C[C@H]3COC(F)F)cc2)cc1` [Example 39]: at RORγ, the IC50 was 3 nM. Moreover, in series [1], the bioavailability is 35%, the AUC(0-t) came to 11.4 µM·h, the concentration peaked (Cmax) at 1500 nM and the half-life is 3.9 h. In series [2], the half-life at 1.5 μM was 3.53 h and the CLint scaled at 1.5 μM turned out to be 8.2 mL/min/kg. In series [3], the half-life at 1.5 μM was 5.62 h and the CLint scaled at 1.5 μM stood at 7.4 mL/min/kg.
With `CCS(=O)(=O)c1ccc([C@H](CCO)NC(=O)c2ccc(N3C[C@@H](Oc4ccc(C(F)(F)F)cc4)C[C@H]3COC(F)F)cc2)cc1` [Example 91], in series [1], the bioavailability is 42%, the AUC(0-t) was determined as 21 µM·h, the highest level (Cmax) was 1900 nM and the half-life was 7.6 h. In series [2], the half-life at 1.5 μM amounted to 6.93 h and the CLint scaled at 1.5 μM was found to be 4.2 mL/min/kg. Besides, in series [3], the half-life at 1.5 μM worked out at 2.37 h and the CLint scaled at 1.5 μM is 38 mL/min/kg.

One may read the IC50 as the point on the concentration scale where inhibition reaches its midpoint. The bioavailability is dose-corrected exposure relative to a reference, in per cent. What is called AUC(0-t) is exposure summed from dosing to a finite time, without extrapolation to infinity. Read a low AUC(0-t) as low exposure. What is called Cmax is the peak of the concentration-time curve. What is called CLint scaled is a measure of how fast metabolising enzymes remove a compound, apart from limits set by blood flow. The low end stands for slow turnover, the high end for rapid turnover.
